# Values quoted from earlier work, collected in patent publication US6960354B1, “Membrane lipid compositions” (Phares Technology BV, priority 1999, dated 2005).
smiles,measurement,setting,value
O=C(O)c1ccccc1O [Salicylic acid],solubility in ethanol,ethanol,soluble
same,solubility in water,water,only sparingly soluble
